40 compounds from patent publication US6531478B2, “Amino pyrazole derivatives useful for the treatment of obesity and other disorders” (priority 2000, dated 2003) can be followed below.

The first assay deals with T1, human neuropeptide Y5 receptor (Homo sapiens, UniProt Q15761).
T1 construct: expressed in transfected cells; host or cells: HEK-293, stably transfected, G-418 selected; membranes
T1 sequence (Q15761 1-445): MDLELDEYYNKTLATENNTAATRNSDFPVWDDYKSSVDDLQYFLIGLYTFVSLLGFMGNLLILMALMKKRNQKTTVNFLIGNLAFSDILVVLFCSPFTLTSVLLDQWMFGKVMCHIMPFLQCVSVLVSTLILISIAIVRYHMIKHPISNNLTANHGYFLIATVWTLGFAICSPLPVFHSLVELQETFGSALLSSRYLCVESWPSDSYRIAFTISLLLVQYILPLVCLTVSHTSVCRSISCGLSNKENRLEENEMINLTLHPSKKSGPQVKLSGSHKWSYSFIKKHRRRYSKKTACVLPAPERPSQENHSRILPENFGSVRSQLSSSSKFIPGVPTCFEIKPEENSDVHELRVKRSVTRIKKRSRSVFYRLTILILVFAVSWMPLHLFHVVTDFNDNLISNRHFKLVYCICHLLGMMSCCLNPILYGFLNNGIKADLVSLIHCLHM
Description: NPY5 HTS centrifugation assay: competition with 125I-PYY for binding to membranes of NPY5-transfected HEK-293 cells. The settings on record: 3 μM test compound; inhibition of 125I-PYY binding. Here is the method: NPY5 HTS Centrifugation Assay
The compounds described in this invention were evaluated for binding to the human neuropeptide Y5 receptor.
The human NPY5 receptor cDNA (Genbank Accession number U66275) was inserted into the vector pClneo (Invitrogen) and transfected into human embryonic kidney cells (HEK-293) via Calcium phosphate method (Cullen 1987). Stably transfected cells were selected with G-418 (600 ug/mL). Stably transfected cells served as the source for the membranes for the NPY5 receptor binding assay.
NPY5-transfected HEK293 cells were grown to confluence in 150 cm^2 culture dishes. Cells were washed once with phosphate-buffered saline (Gibco Cat# 14040-133). Cells were then incubated in phosphate-buffered saline without Calcium and without Magnesium, supplemented with 2 mM EDTA. Cells were incubated for 10 minutes at room temperature and the cells were collected by repetitive pipetting. Cells were formed into pellets and frozen at −80 until needed. Frozen pellets were homogenized with a polytron at full speed for 12 seconds in a homogenization buffer (20 mM Tris HCl, 5 mM EDTA, pH 7.4). Homogenates were centrifuged for 5 minutes at 4° C. at 200 g. Supernatants were transferred to corex tubes and centrifuged for 25 minutes at 28,000 g. Pellets were re-suspended in Binding (20 mM HEPES, 10 mM NaCl, 0.22 mM KH2PO4, 1.3 mM CaCl2, 0.8 mM MgSO4, pH 7.4). Membranes were kept on ice until use.
A competition binding assay, known to those skilled in the art, was used in which the test compounds (aminopyrazoles of formula (I) compete with ^1251I-PYY for binding to cell membranes. In simple terms, less ^125I-PYY bound to the membranes implies that the test compound is a good inhibitor (competitor). Bound ^1251I-PYY is determined by centrifugation the membranes, aspirating supernatant, washing away residual ^125I-PYY and subsequently counting the bound sample in a γ-counter.
Procedure for Radioligand Binding Assay
Compounds to be tested were prepared as 10× stocks in binding buffer and added first to assay tubes (RIA vials, Sarstedt). Twenty (20) μL of each 10× compound stock was pipetted into vials and 80 μL of ^125I-PYY (NEN catalog number NEX240), which had been diluted to a concentration of 200 pM in 0.25% BSA in binding buffer, was added to the compound tubes (final concentration of ^125I-PYY is 80 pM). To each tube was added 100 μL of membranes and the mixture was agitated by pipetting 2 times. Samples were incubated for 1 hr at room temperature. Aluminum cast plates (Sarstedt) containing the vials were centrifuged 10 minutes at 3200 rpm in a Sorvall RT6000. Supernatant was then aspirated. To each vial was added 400 μL PBS and the vial was then aspirated again. Vials were put in carrier polypropylene 12×75 tube and counted in gamma counter (Packard). Non-specific binding was determined in the presence of 300 nM NPY. Percent inhibition of ^125I-PYY binding was calculated by subtracting non-specific binding from the test samples (compounds of formula (I)), taking these counts and dividing by total binding, and multiplying by 100. Inhibitory concentration values (IC50) of compounds that show appreciable inhibition of ^125I-PYY binding were calculated by obtaining percent inhibition of ^125I-PYY binding values at different concentrations of the test compound, and using a graphing program such as GraphPad Prism (San Diego, Calif.) to calculate the concentration of test compound that inhibits fifty-percent of ^125I-PYY binding (Table 2). These operations are known to those skilled in the art.
Consider `O=C(Nc1ccc(F)cc1)c1ccc(-c2cc(NS(=O)(=O)c3ccccc3)n(-c3ccccc3)n2)cc1` [Cmpd 5], for which the “% Inh NPY5 @ 3 μM” value was determined as 0.00%. Same read-out and setting: under `Cc1ccc(NC(=O)c2ccc(-c3cc(NS(=O)(=O)c4ccccc4)n(-c4ccccc4)n3)cc2)cc1` [Cmpd 6] stands 0.00%. Same read-out and setting: the result for `COC(=O)c1ccc(-c2cc(N)n(-c3ccccc3)n2)cc1` [Cmpd 7] reads 13.00%; that for `COC(=O)c1ccc(-c2cc(N(S(=O)(=O)c3ccccc3)S(=O)(=O)c3ccccc3)n(-c3ccccc3)n2)cc1` [Cmpd 8], 0%; that for `O=C(O)c1ccc(-c2cc(NS(=O)(=O)c3ccccc3)n(-c3ccccc3)n2)cc1` [Cmpd 9], 0%.

On to `O=C(NCc1ccccc1)c1ccc(-c2cc(NS(=O)(=O)c3ccccc3)n(-c3ccccc3)n2)cc1` [Cmpd 10], for which the “% Inh NPY5 @ 3 μM” value is recorded as 19.00%. `O=C(Nc1cccc2ccccc12)c1ccc(-c2cc(NS(=O)(=O)c3ccccc3)n(-c3ccccc3)n2)cc1` [Cmpd 11]: the “% Inh NPY5 @ 3 μM” value is on record as 14.00%. The same measure, in the same setting: the result for `O=C(Nc1ccc2ccccc2c1)c1ccc(-c2cc(NS(=O)(=O)c3ccccc3)n(-c3ccccc3)n2)cc1` [Cmpd 12] reads 2.00%; that for `O=C(c1ccc(-c2cc(NS(=O)(=O)c3ccccc3)n(-c3ccccc3)n2)cc1)N1CCc2ccccc2C1` [Cmpd 13], 12.00%. In the case of `Cc1ccc(-n2nc(-c3ccc(C(=O)Nc4ccccc4)cc3)cc2NS(=O)(=O)c2ccc(C)cc2)cc1` [Cmpd 15], the “% Inh NPY5 @ 3 μM” value stood at 4.00%. On the same count and under the same terms, the result for `Cc1ccc(-n2nc(-c3ccc(C(=O)Nc4ccc(F)cc4)cc3)cc2NS(=O)(=O)c2ccc(C)cc2)cc1` [Cmpd 16] reads 1.00%. On the same count and under the same terms, the result for `Cc1ccc(NC(=O)c2ccc(-c3cc(NS(=O)(=O)c4ccc(C)cc4)n(-c4ccc(C)cc4)n3)cc2)cc1` [Cmpd 17] reads 6.00%; that for `COC(=O)c1ccc(-c2cc(NS(=O)(=O)c3ccccc3)n(-c3ccccc3)n2)cc1` [Cmpd 18], 2.00%; that for `COC(=O)c1ccc(-c2cc(N)n(-c3ccc(C)cc3)n2)cc1` [Cmpd 19], 2.00%. Same read-out and setting: the result for `COC(=O)c1ccc(-c2cc(N(S(=O)(=O)c3ccc(C)cc3)S(=O)(=O)c3ccc(C)cc3)n(-c3ccc(C)cc3)n2)cc1` [Cmpd 20] reads 0.00%. Regarding `Cc1ccc(-n2nc(-c3ccc(C(=O)O)cc3)cc2NS(=O)(=O)c2ccc(C)cc2)cc1` [Cmpd 21], the “% Inh NPY5 @ 3 μM” value was found to be 16.00%.

With `Cc1ccc(-n2nc(-c3ccc(N(S(=O)(=O)c4cccc(C(F)(F)F)c4)S(=O)(=O)c4cccc(C(F)(F)F)c4)cc3)cc2N)cc1` [Cmpd 26], the “% Inh NPY5 @ 3 μM” value was 16.00%. Still for that read-out and setting: under `Cc1ccc(-n2nc(-c3ccc(N(S(=O)(=O)c4ccc5ccccc5c4)S(=O)(=O)c4ccc5ccccc5c4)cc3)cc2N)cc1` [Cmpd 27] stands 0.00%. Still for that read-out and setting: the result for `CC(=O)Nc1ccc(S(=O)(=O)N(c2ccc(-c3cc(N)n(-c4ccc(C)cc4)n3)cc2)S(=O)(=O)c2ccc(NC(C)=O)cc2)cc1` [Cmpd 28] reads 21.00%; that for `Cc1ccc(-n2nc(-c3ccc(N(S(=O)(=O)c4ccc(OC(F)(F)F)cc4)S(=O)(=O)c4ccc(OC(F)(F)F)cc4)cc3)cc2N)cc1` [Cmpd 29], 16.00%; that for `Cc1ccc(-n2nc(-c3ccc(C(=O)O)cc3)cc2N)cc1` [Cmpd 32], 0.00%. Still for that read-out and setting: the result for `Cc1ccc(NC(=O)c2ccc(-c3cc(N)n(-c4ccc(C)cc4)n3)cc2)cc1` [Cmpd 33] reads 0.00%; that for `Cc1ccc(-n2nc(-c3ccc(N(S(=O)(=O)c4cccc5ccccc45)S(=O)(=O)c4cccc5ccccc45)cc3)cc2N)cc1` [Cmpd 35], 29.00%. `Cc1ccc(-n2nc(-c3ccc(N(S(=O)(=O)c4cc(C(F)(F)F)cc(C(F)(F)F)c4)S(=O)(=O)c4cc(C(F)(F)F)cc(C(F)(F)F)c4)cc3)cc2N)cc1` [Cmpd 40]: the “% Inh NPY5 @ 3 μM” value was determined as 16.00%.

With `Cc1ccc(-n2nc(-c3ccc(NS(=O)(=O)c4cc(C(F)(F)F)cc(C(F)(F)F)c4)cc3)cc2N)cc1` [Cmpd 41], the “% Inh NPY5 @ 3 μM” value turned out to be 10.00%. Regarding `Cc1ccc(-n2nc(-c3ccc(NS(=O)(=O)c4cccc5cccnc45)cc3)cc2N)cc1` [Cmpd 43], the “% Inh NPY5 @ 3 μM” value stood at 62.00%. Still for that read-out and setting: under `Cc1ccc(-n2nc(-c3ccc(NS(=O)(=O)c4cccc5ccccc45)cc3)cc2N)cc1` [Cmpd 44] stands 72.00%; under `Cc1ccc(-n2nc(-c3ccc(N(S(=O)(=O)c4ccc(C(F)(F)F)cc4)S(=O)(=O)c4ccc(C(F)(F)F)cc4)cc3)cc2N)cc1` [Cmpd 46], 21.00%.

Staying with this assay, now noted: 3 μM test compound; inhibition of 125I-PYY binding; read-out: % Inh NPY5 @ 3 μM.
Consider `O=C(Nc1ccccc1)c1ccc(-c2cc(NS(=O)(=O)c3ccccc3)n(-c3ccccc3)n2)cc1` [Cmpd 4, N-Phenyl-4-[1-phenyl-5-[(phenylsulfonyl)amino]-1H-pyrazol-3-yl]benzamide], for which the inhibition at 3 µM turned out to be 0%.

Consider `COc1ccc(S(=O)(=O)Nc2ccc(-c3cc(N)n(-c4ccc(C)cc4)n3)cc2)cc1` [Cmpd 36], for which the inhibition at 3 µM was 100%.

For `Cc1ccc(-n2nc(-c3ccc(NS(=O)(=O)c4ccccc4)cc3)cc2N)cc1` [Cmpd 37], the inhibition at 3 µM came out at 97%. Same read-out and setting: under `Cc1ccc(-n2nc(-c3ccc(NS(=O)(=O)c4ccc(F)cc4)cc3)cc2N)cc1` [Cmpd 38] stands 98%; under `Cc1ccc(-n2nc(-c3ccc(NS(=O)(=O)c4cccc(C(F)(F)F)c4)cc3)cc2N)cc1` [Cmpd 39], 95%. Still for that read-out and setting: the result for `Cc1ccc(-n2nc(-c3ccc(NS(=O)(=O)c4ccc(OC(F)(F)F)cc4)cc3)cc2N)cc1` [Cmpd 42] reads 94%; that for `Cc1ccc(-n2nc(-c3ccc(NS(=O)(=O)c4ccc5ccccc5c4)cc3)cc2N)cc1` [Cmpd 45], 90%; that for `Cc1ccc(-n2nc(-c3ccc(NS(=O)(=O)c4ccc(C(F)(F)F)cc4)cc3)cc2N)cc1` [Cmpd 47], 82%.

Staying with this assay, now noted: 30 μM test compound (stated in cell); inhibition of 125I-PYY binding.
On to `O=C(c1ccc(-c2cc(NS(=O)(=O)c3ccccc3)n(-c3ccccc3)n2)cc1)N1CCCc2ccccc21` [Cmpd 14], for which the “% Inh NPY5 @ 30 μM” value was “(26.00 @ %”.

The same assay, now with this note: inhibition of 125I-PYY binding; values in nM; read-out: IC50 hNPY5.
For `Cc1ccc(S(=O)(=O)Nc2ccc(-c3cc(NS(=O)(=O)c4ccc(C)cc4)n(-c4ccccc4C)n3)cc2)cc1` [Cmpd 1], the half-inhibitory concentration (IC50) came out at 200 nM. On the same count and under the same terms, under `Cc1ccc(-n2nc(-c3ccc(N(S(=O)(=O)c4ccccc4)S(=O)(=O)c4ccccc4)cc3)cc2N)cc1` [Cmpd 22, N-[4-[5-amino-1(4-methylphenyl)-1H-pyrazol-3-yl]phenyl]-N-(phenylsulfonyl)-benzenesulfonamide] stands 514 nM; under `Cc1ccc(-n2nc(-c3ccc(NS(=O)(=O)c4ccc(C)cc4)cc3)cc2N)cc1` [Cmpd 31], 28 nM; under `COc1ccc(S(=O)(=O)Nc2ccc(-c3cc(N)n(-c4ccc(C)cc4)n3)cc2)cc1` [Cmpd 36], 15 nM.

For `Cc1ccc(-n2nc(-c3ccc(NS(=O)(=O)c4ccccc4)cc3)cc2N)cc1` [Cmpd 37], the IC50 turned out to be 25 nM. The same measure, in the same setting: the result for `Cc1ccc(-n2nc(-c3ccc(NS(=O)(=O)c4ccc(F)cc4)cc3)cc2N)cc1` [Cmpd 38] reads 29 nM; that for `Cc1ccc(-n2nc(-c3ccc(NS(=O)(=O)c4cccc(C(F)(F)F)c4)cc3)cc2N)cc1` [Cmpd 39], 31 nM; that for `Cc1ccc(-n2nc(-c3ccc(NS(=O)(=O)c4ccc(OC(F)(F)F)cc4)cc3)cc2N)cc1` [Cmpd 42], 67 nM. Still for that read-out and setting: under `Cc1ccc(-n2nc(-c3ccc(NS(=O)(=O)c4ccc5ccccc5c4)cc3)cc2N)cc1` [Cmpd 45] stands 208 nM; under `Cc1ccc(-n2nc(-c3ccc(NS(=O)(=O)c4ccc(C(F)(F)F)cc4)cc3)cc2N)cc1` [Cmpd 47], 63 nM.

One may read the IC50 as the point on the concentration scale where inhibition reaches its midpoint.
